Test results from ChEMBL document CHEMBL4477225, “Development of a cell viability assay to assess drug metabolite structure-toxicity relationships” (Bioorg Med Chem Lett, 2016).

Columns and labels:
Settings in all cases: recombinant enzyme
Cytochrome P450 2C9 [1] = molecular target: T1, Cytochrome P450 2C9 (Homo sapiens, UniProt P11712); experiment: Drug activation in human Hep3B cells assessed as human CYP2C9-mediated drug metabolism-induced cytotoxicity measured as decrease in cell viability at 300 uM pre-incubated with BSO for 18 hrs followed by incubation with compound for 3 hrs in presence of NADPH measured after 24 hrs in absence of compound, CYP3A4 and NADPH by cell titer-glo luminescence assay relative to BSO alone
Cytochrome P450 2D6 [2] = molecular target: T2, Cytochrome P450 2D6 (Homo sapiens, UniProt P10635); experiment: Drug activation in human Hep3B cells assessed as human CYP2D6-mediated drug metabolism-induced cytotoxicity measured as decrease in cell viability at 78.6 uM pre-incubated with BSO for 18 hrs followed by incubation with compound for 3 hrs in presence of NADPH measured after 24 hrs in absence of compound, CYP3A4 and NADPH by cell titer-glo luminescence assay relative to BSO alone; format: ADME, cell-based
Cytochrome P450 3A4 [3] = molecular target: T3, Cytochrome P450 3A4 (Homo sapiens, UniProt P08684); experiment: Drug activation in human Hep3B cells assessed as human CYP3A4-mediated drug metabolism-induced cytotoxicity measured as decrease in cell viability at 90.1 uM pre-incubated with BSO for 18 hrs followed by incubation with compound for 3 hrs in presence of NADPH measured after 24 hrs in absence of compound, CYP3A4 and NADPH by cell titer-glo luminescence assay relative to BSO alone; format: ADME, cell-based
Cytochrome P450 2C9 [4] = molecular target: T1, Cytochrome P450 2C9; experiment: Drug activation in human Hep3B cells assessed as human CYP2C9-mediated drug metabolism-induced cytotoxicity measured as decrease in cell viability at 139.9 uM pre-incubated with BSO for 18 hrs followed by incubation with compound for 3 hrs in presence of NADPH measured after 24 hrs in absence of compound, CYP3A4 and NADPH by cell titer-glo luminescence assay relative to BSO alone; format: ADME, cell-based
Cytochrome P450 3A4 [5] = molecular target: T3, Cytochrome P450 3A4; experiment: Drug activation in human Hep3B cells assessed as human CYP3A4-mediated drug metabolism-induced cytotoxicity measured as decrease in cell viability at 131.8 uM pre-incubated with BSO for 18 hrs followed by incubation with compound for 3 hrs in presence of NADPH measured after 24 hrs in absence of compound, CYP3A4 and NADPH by cell titer-glo luminescence assay relative to BSO alone; format: ADME, cell-based
Cytochrome P450 2D6 [6] = molecular target: T2, Cytochrome P450 2D6; experiment: Drug activation in human Hep3B cells assessed as human CYP2D6-mediated drug metabolism-induced cytotoxicity measured as decrease in cell viability at 132.2 uM pre-incubated with BSO for 18 hrs followed by incubation with compound for 3 hrs in presence of NADPH measured after 24 hrs in absence of compound, CYP3A4 and NADPH by cell titer-glo luminescence assay relative to BSO alone; format: ADME, cell-based
Cytochrome P450 3A4 [7] = molecular target: T3, Cytochrome P450 3A4; experiment: Drug activation in human Hep3B cells assessed as human CYP3A4-mediated drug metabolism-induced cytotoxicity measured as decrease in cell viability at 6.5 uM pre-incubated with BSO for 18 hrs followed by incubation with compound for 3 hrs in presence of NADPH measured after 24 hrs in absence of compound, CYP3A4 and NADPH by cell titer-glo luminescence assay relative to BSO alone; format: ADME, cell-based
Cytochrome P450 2D6 [8] = molecular target: T2, Cytochrome P450 2D6; experiment: Drug activation in human Hep3B cells assessed as human CYP2D6-mediated drug metabolism-induced cytotoxicity measured as decrease in cell viability at 300 uM pre-incubated with BSO for 18 hrs followed by incubation with compound for 3 hrs in presence of NADPH measured after 24 hrs in absence of compound, CYP3A4 and NADPH by cell titer-glo luminescence assay relative to BSO alone
Cytochrome P450 3A4 [9] = molecular target: T3, Cytochrome P450 3A4; experiment: Drug activation in human Hep3B cells assessed as human CYP3A4-mediated drug metabolism-induced cytotoxicity measured as decrease in cell viability at 56.4 uM pre-incubated with BSO for 18 hrs followed by incubation with compound for 3 hrs in presence of NADPH measured after 24 hrs in absence of compound, CYP3A4 and NADPH by cell titer-glo luminescence assay relative to BSO alone; format: ADME, cell-based
Cytochrome P450 2D6 [10] = molecular target: T2, Cytochrome P450 2D6; experiment: Drug activation in human Hep3B cells assessed as human CYP2D6-mediated drug metabolism-induced cytotoxicity measured as decrease in cell viability at 65.4 uM pre-incubated with BSO for 18 hrs followed by incubation with compound for 3 hrs in presence of NADPH measured after 24 hrs in absence of compound, CYP3A4 and NADPH by cell titer-glo luminescence assay relative to BSO alone; format: ADME, cell-based
Cytochrome P450 3A4 [11] = molecular target: T3, Cytochrome P450 3A4; experiment: Drug activation in human Hep3B cells assessed as human CYP3A4-mediated drug metabolism-induced cytotoxicity measured as decrease in cell viability at 36.8 uM pre-incubated with BSO for 18 hrs followed by incubation with compound for 3 hrs in presence of NADPH measured after 24 hrs in absence of compound, CYP3A4 and NADPH by cell titer-glo luminescence assay relative to BSO alone; format: ADME, cell-based
Cytochrome P450 2D6 [12] = molecular target: T2, Cytochrome P450 2D6; experiment: Drug activation in human Hep3B cells assessed as human CYP2D6-mediated drug metabolism-induced cytotoxicity measured as decrease in cell viability at 194 uM pre-incubated with BSO for 18 hrs followed by incubation with compound for 3 hrs in presence of NADPH measured after 24 hrs in absence of compound, CYP3A4 and NADPH by cell titer-glo luminescence assay relative to BSO alone; format: ADME, cell-based
Cytochrome P450 3A4 [13] = molecular target: T3, Cytochrome P450 3A4; experiment: Drug activation in human Hep3B cells assessed as human CYP3A4-mediated drug metabolism-induced cytotoxicity measured as decrease in cell viability at 300 uM pre-incubated with BSO for 18 hrs followed by incubation with compound for 3 hrs in presence of NADPH measured after 24 hrs in absence of compound, CYP3A4 and NADPH by cell titer-glo luminescence assay relative to BSO alone
Cytochrome P450 2D6 [14] = molecular target: T2, Cytochrome P450 2D6; experiment: Drug activation in human Hep3B cells assessed as human CYP2D6-mediated drug metabolism-induced cytotoxicity measured as decrease in cell viability at 5.8 uM pre-incubated with BSO for 18 hrs followed by incubation with compound for 3 hrs in presence of NADPH measured after 24 hrs in absence of compound, CYP3A4 and NADPH by cell titer-glo luminescence assay relative to BSO alone; format: ADME, cell-based
Cytochrome P450 3A4 [15] = molecular target: T3, Cytochrome P450 3A4; experiment: Drug activation in human Hep3B cells assessed as human CYP3A4-mediated drug metabolism-induced cytotoxicity measured as decrease in cell viability at 22.2 uM pre-incubated with BSO for 18 hrs followed by incubation with compound for 3 hrs in presence of NADPH measured after 24 hrs in absence of compound, CYP3A4 and NADPH by cell titer-glo luminescence assay relative to BSO alone; format: ADME, cell-based
Cytochrome P450 3A4 [16] = molecular target: T3, Cytochrome P450 3A4; experiment: Drug activation in human Hep3B cells assessed as human CYP3A4-mediated drug metabolism-induced cytotoxicity measured as decrease in cell viability at 69.6 uM pre-incubated with BSO for 18 hrs followed by incubation with compound for 3 hrs in presence of NADPH measured after 24 hrs in absence of compound, CYP3A4 and NADPH by cell titer-glo luminescence assay relative to BSO alone; format: ADME, cell-based
Cytochrome P450 2D6 [17] = molecular target: T2, Cytochrome P450 2D6; experiment: Drug activation in human Hep3B cells assessed as human CYP2D6-mediated drug metabolism-induced cytotoxicity measured as decrease in cell viability at 17.6 uM pre-incubated with BSO for 18 hrs followed by incubation with compound for 3 hrs in presence of NADPH measured after 24 hrs in absence of compound, CYP3A4 and NADPH by cell titer-glo luminescence assay relative to BSO alone; format: ADME, cell-based
Cytochrome P450 3A4 [18] = molecular target: T3, Cytochrome P450 3A4; experiment: Drug activation in human Hep3B cells assessed as human CYP3A4-mediated drug metabolism-induced cytotoxicity measured as decrease in cell viability at 25.3 uM pre-incubated with BSO for 18 hrs followed by incubation with compound for 3 hrs in presence of NADPH measured after 24 hrs in absence of compound, CYP3A4 and NADPH by cell titer-glo luminescence assay relative to BSO alone; format: ADME, cell-based

T2 sequence (P10635 whole entry): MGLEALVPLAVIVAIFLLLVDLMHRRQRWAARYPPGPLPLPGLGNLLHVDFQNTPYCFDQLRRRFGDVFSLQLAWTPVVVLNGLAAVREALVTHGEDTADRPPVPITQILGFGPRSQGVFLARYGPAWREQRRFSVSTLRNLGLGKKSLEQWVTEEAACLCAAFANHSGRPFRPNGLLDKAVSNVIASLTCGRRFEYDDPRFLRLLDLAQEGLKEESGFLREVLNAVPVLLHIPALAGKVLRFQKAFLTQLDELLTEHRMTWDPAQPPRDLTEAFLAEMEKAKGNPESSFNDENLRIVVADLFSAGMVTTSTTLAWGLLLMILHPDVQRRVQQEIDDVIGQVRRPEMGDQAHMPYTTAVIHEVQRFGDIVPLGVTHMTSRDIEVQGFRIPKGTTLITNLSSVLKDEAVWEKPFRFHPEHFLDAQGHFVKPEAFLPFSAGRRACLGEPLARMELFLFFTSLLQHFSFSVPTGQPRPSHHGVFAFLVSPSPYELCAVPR
T3 sequence (P08684 whole entry): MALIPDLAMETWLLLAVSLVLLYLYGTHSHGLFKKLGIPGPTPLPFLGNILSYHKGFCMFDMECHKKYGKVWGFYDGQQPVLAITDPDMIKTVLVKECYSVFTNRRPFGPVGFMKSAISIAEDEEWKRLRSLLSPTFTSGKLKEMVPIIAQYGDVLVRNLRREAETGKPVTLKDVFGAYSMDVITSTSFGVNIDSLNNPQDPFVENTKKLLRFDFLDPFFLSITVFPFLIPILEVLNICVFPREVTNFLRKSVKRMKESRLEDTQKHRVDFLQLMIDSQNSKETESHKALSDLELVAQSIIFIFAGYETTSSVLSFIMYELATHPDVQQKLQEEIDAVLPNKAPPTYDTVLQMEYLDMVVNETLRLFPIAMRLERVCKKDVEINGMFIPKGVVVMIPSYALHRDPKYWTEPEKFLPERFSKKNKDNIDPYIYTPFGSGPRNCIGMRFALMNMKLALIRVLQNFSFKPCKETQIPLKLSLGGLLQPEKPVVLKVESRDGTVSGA
T1 sequence (P11712 whole entry): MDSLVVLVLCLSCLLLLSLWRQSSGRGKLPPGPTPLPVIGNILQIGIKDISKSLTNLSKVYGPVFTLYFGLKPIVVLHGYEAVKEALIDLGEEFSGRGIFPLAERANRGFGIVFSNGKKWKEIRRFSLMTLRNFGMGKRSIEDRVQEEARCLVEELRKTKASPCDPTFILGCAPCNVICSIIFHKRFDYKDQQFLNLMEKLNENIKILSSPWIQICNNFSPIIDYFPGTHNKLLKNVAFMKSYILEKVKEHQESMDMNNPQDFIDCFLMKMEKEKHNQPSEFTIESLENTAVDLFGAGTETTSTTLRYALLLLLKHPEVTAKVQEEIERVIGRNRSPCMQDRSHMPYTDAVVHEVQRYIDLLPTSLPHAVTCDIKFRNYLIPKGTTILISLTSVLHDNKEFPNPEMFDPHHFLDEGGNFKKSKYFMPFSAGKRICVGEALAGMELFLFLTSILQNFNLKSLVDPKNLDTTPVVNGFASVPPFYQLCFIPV

Row | SMILES | FC (Cytochrome P450 2C9 [1]) | FC (Cytochrome P450 2D6 [8]) | FC (Cytochrome P450 3A4 [13]) | further results
1 | CNC(=C[N+](=O)[O-])NCCSCc1ccc(CN(C)C)o1 [RANITIDINE] | 1 |  |  | fold change (FC) (Cytochrome P450 2D6 [2]): 3.8; fold change (FC) (Cytochrome P450 3A4 [3]): 3.3
2 | CNCCCN1c2ccccc2CCc2ccccc21 [DESIPRAMINE] |  |  |  | fold change (FC) (Cytochrome P450 2C9 [4]): 0.7; fold change (FC) (Cytochrome P450 3A4 [5]): 0.7; fold change (FC) (Cytochrome P450 2D6 [6]): 0.7
3 | CC(CCc1ccccc1)NCC(O)c1ccc(O)c(C(N)=O)c1 (stereo not given) [LABETALOL] | 1 | 1 |  | fold change (FC) (Cytochrome P450 3A4 [7]): 46
4 | CN(C)[C@@H]1C(O)=C(C(N)=O)C(=O)[C@@]2(O)C(O)=C3C(=O)c4c(O)cccc4[C@@](C)(O)[C@H]3C[C@@H]12 [TETRACYCLINE] |  |  |  | fold change (FC) (Cytochrome P450 3A4 [9]): 2.9; fold change (FC) (Cytochrome P450 2D6 [10]): 2.5
5 | CC(C)OC(=O)C(C)(C)Oc1ccc(C(=O)c2ccc(Cl)cc2)cc1 [FENOFIBRATE] |  |  |  | fold change (FC) (Cytochrome P450 3A4 [11]): 2.9; fold change (FC) (Cytochrome P450 2C9 [4]): 0.8; fold change (FC) (Cytochrome P450 2D6 [12]): 0.5
6 | Cc1ccc(C(=O)c2cc(O)c(O)c([N+](=O)[O-])c2)cc1 [TOLCAPONE] | 1 | 1 | 1 | 
7 | O=C(O)COc1ccc(C(=O)c2cccs2)c(Cl)c1Cl | 1 | 1 | 1 | 
8 | CC(NC(C)(C)C)C(=O)c1cccc(Cl)c1 (stereo not given) [BUPROPION] | 1 | 1 | 1 | 
9 | Nc1nc(NC2CC2)c2ncn([C@H]3C=C[C@@H](CO)C3)c2n1 [ABACAVIR] | 1 | 1 | 1 | 
10 | Nc1nc2c(ncn2COCCO)c(=O)[nH]1 [ACYCLOVIR] | 1 | 1 | 1 | 
11 | Cc1nc(C)c2c(n1)N(Cc1ccc(-c3ccccc3-c3nnn[nH]3)cc1)C(=O)CC2 [TASOSARTAN] | 1 |  |  | fold change (FC) (Cytochrome P450 2D6 [14]): 52; fold change (FC) (Cytochrome P450 3A4 [15]): 13.5
12 | CC[C@H](C)C(=O)O[C@H]1C[C@H](O)C=C2C=C[C@H](C)[C@H](CC[C@@H](O)C[C@@H](O)CC(=O)O)[C@H]21 [PRAVASTATIN] | 1 | 1 | 1 | 
13 | CC(=O)Oc1ccccc1C(=O)O [ASPIRIN] | 1 | 1 | 1 | 
14 | O=C(CCCN1CCC(O)(c2ccc(Cl)cc2)CC1)c1ccc(F)cc1 [HALOPERIDOL] | 1 | 1 | 1 | 
15 | Nc1ccn([C@H]2CC[C@@H](CO)O2)c(=O)n1 [ZALCITABINE] | 1 | 1 | 1 | 
16 | Cc1ccnc2c1NC(=O)c1cccnc1N2C1CC1 [NEVIRAPINE] | 1 | 1 | 1 | 
17 | C[C@@](Cc1ccc(O)c(O)c1)(NN)C(=O)O [CARBIDOPA ANHYDROUS] | 0.6 | 0.6 | 0.6 | 
18 | CC(C(=O)O)c1ccc2oc(-c3ccc(Cl)cc3)nc2c1 (stereo not given) [BENOXAPROFEN] | 1 | 1 | 1 | 
19 | CC(C)(C)NCC(O)c1ccc(O)c(CO)c1 (stereo not given) [ALBUTEROL] | 1 | 1 | 1 | 
20 | CNC(=C[N+](=O)[O-])NCCSCc1csc(CN(C)C)n1 [NIZATIDINE] | 1 | 1 | 1 | 
21 | C[C@H]1O[C@@H](O[C@H]2[C@@H](O)C[C@H](O[C@H]3[C@@H](O)C[C@H](O[C@H]4CC[C@@]5(C)[C@H](CC[C@@H]6[C@@H]5C[C@@H](O)[C@]5(C)[C@@H](C7=CC(=O)OC7)CC[C@]65O)C4)O[C@@H]3C)O[C@@H]2C)C[C@H](O)[C@@H]1O [DIGOXIN] | 1 | 1 | 1 | 
22 | Cl.Nc1ccc(/N=N/c2ccccc2)c(N)n1 [PHENAZOPYRIDINE HYDROCHLORIDE] | 1 |  |  | fold change (FC) (Cytochrome P450 3A4 [16]): 4.3; fold change (FC) (Cytochrome P450 2D6 [17]): 17
23 | CC/C(=C(\c1ccccc1)c1ccc(OCCN(C)C)cc1)c1ccccc1 [TAMOXIFEN] |  |  |  | fold change (FC) (Cytochrome P450 3A4 [18]): 0.8
24 | [H]/N=C(/N)N[C@H]1[C@H](O)[C@@H](O)[C@H](O[C@@H]2O[C@@H](C)[C@](O)(C=O)[C@H]2O[C@@H]2O[C@@H](CO)[C@H](O)[C@@H](O)[C@@H]2NC)[C@@H](N/C(N)=N\[H])[C@@H]1O [STREPTOMYCIN] | 1 | 1 | 1 | 
25 | O=P1(N(CCCl)CCCl)NCCCO1 (stereo not given) [CYCLOPHOSPHAMIDE ANHYDROUS] | 1 | 1 | 1 | 
26 | CN1Cc2c(N)cccc2C(c2ccccc2)C1 (stereo not given) [NOMIFENSINE] | 0.3 | 0.3 | 0.3 | 
